For data set [1], the system named is platelet agregation induced by PAF. As to the kind of experiment: Inhibition of platelet agregation induced by PAF. The data set is classed as cell-based, New Zealand rabbits. The following applies: Oryctolagus cuniculus, New Zealand rabbit platelets, agregometer at 57° C., Table I. The protocol:
1) Inhibition of platelet agregation induced by PAF
This experimentation was conducted according to the method of R. KINLOUGH. RATHBONE, J. P. CAZENAVE, M. PACKHAM and F. MUSTARD, Lab. Invest. 48, 98, 1980. In this test, New Zealand rabbits were used (male New Zealand rabbits of an average weight of 5 kg).
The determinations are made on a chrono-log Coultronics agregometer, at […] coupled with a graphic recorder; the results of these determinations (in molecular concentration) are reported on the table I on the central column.

For the next data set, the target named is benzodiazepine receptors. As to the kind of experiment: Inhibition of the binding to benzodiazepine receptors (rat brains). The conditions noted are these: rat brains incubated 1 h 30 at 4° C.; 3H-RO-15-4788 and 3H-RO-5-4864 as tracers; Table I; read-out: BDZ receptors (inhibition of the binding to benzodiazepine receptors). The source says: 2) Inhibition of the binding to benzodiazepine receptors
The interest of the previous experimentation depends on the results obtained in this experimentation: as a compound of the invention has a benzodiazepine like structure, it is important to check whether the specific benzodiazepine activity would not appear at the dose where platelet agregation was inhibited.
Therefore, this experimentation has been conducted according to the method of MOHLER H. and RICHARD J. G. Agonist and antagonist benzodiazepine receptor intereaction in vitro, Nature, vol. 294, 763°-765, 1981.
This experimentation was conducted on rat brains incubated 1 h 30 at 4° C. using ^3 H-RO-15-4788 and ^3 H-RO-5-4864 (NEN) as tracers and […] and RO-5-4864 as reference antagonists.
The results in molecular concentration are reported in the table I, on the right hand column.

The nature of the next data set: Toxicity on the mice. The following applies: mouse, in vivo, IP route.
Data set [2] deals with bronchospasm induced by the PAF. As to the kind of experiment: Action on the bronchospasm induced by the PAF in anaesthetized guinea-pigs. The data set is classed as in vivo, guinea-pig. The following applies: male Hartley guinea-pigs, oral, 1 hour before PAF i.v.; for Percentage of action: change versus controls; for Percentage of bronchoconstriction: controls 79. ± 5.55, dose not given. The source says:
3) Action on the bronchospasm induced by the PAF
The PAF intravenous injection in anaesthetized guinea-pigs induces a bronchoconstriction with a leucopeny and a thrombocytopeny, according to the method described in S. DESQUAND, C. TOUVAY, J. RANDON, V. LAGENTE, B. VILAIN, I. MARIDONNEAU-PARINI, A. ETIENNE, J. LEFORT, P. BRAQUET and B. VARGAFTIG. Interference of BN 52021 (Ginkolide B) with the bronchopulmonary effects of PAF-acether in the guinea-pig. Eur. J. Pharmacol. 127: 83-95, 1986.
Male Hartley guinea-pigs (400-450 g) (Charles River) anaesthetized with urethane (2 g/kg IP), then are thracheotomized and submitted to a forced respiration with a breathing pump:70-80 strokes/mn, 1 ml of air/ 100 g per stroke. A catheter is introduced in the jugular vein for the injections, an other is introduced in the carotic artery for blood takings. The initial resistance is kept constant under the pressure of 10 cm of water in accordance with the Konzett and Rossler method and the air in excess is measured with a transducor for bronchospasm UGO BASILE together with an enregistror GEMINI. The guinea-pigs had received an IV injection of pancuronium (Pavulon) to inhibit their spontaneous respiration.
The compound according to the invention and the reference compound WEB 2086 (see the above cited Boehringer patent) have been prepared as suspension in gummy water and administrated orally 1 hour before the stimulation by the PAF.
The bronchoconstriction is appreciated by the calculation of the percentage of bronchoconstriction [formula] wherein A stands for induced bronchoconstriction in mm and B stands for maximum bronchoconstriction in mm.

Each structure is given as a SMILES string.

On to `Cc1nnc2n1-c1sc3c(c1C(c1ccccc1Cl)=NC2)CCN(C(=O)Nc1cccc(Cl)c1Cl)C3` [Example 17, 6-(2-chlorophenyl)-9-(2,3-dichloro)phenylcarbamoyl-7,8,9,10-tetrahydro-1-methyl 4H-pyrido[4',3':4,5]thieno[3,2-f]1,2,4-triazolo[4,3-a]1,4-diazepine], for which the figures for the IC50 (in data set [1]; at benzodiazepine receptors) were 55 nM and 920 nM, respectively. For the same compound, in the data set “Toxicity on the mice”, the LD50 lay in the range of 400 to 1000 mg/kg.

`Cc1nnc2n1-c1sc3c(c1C(c1ccccc1Cl)=NC2)CCN(C(=S)NC(C)C)C3` [Example 1, 6-(2-chlorophenyl)-9-isopropylthiocarbamoyl-7,8,9,10-tetrahydro-1-methyl4H-pyrido[4',3':4,5]thieno[3,2-f]1,2,4-triazolo[4,3-a]1,4-diazepine] registered an IC50 in data set [1] of 32.8 nM. For the same compound, at benzodiazepine receptors, the IC50 amounted to 7000 nM. In data set [2], the Percentage of action was -70.4% and the Percentage of bronchoconstriction came out at 23.4%.

On to `Cc1nnc2n1-c1sc3c(c1C(c1ccccc1Cl)=NC2)CCN(C(=O)Nc1ccc(C(C)(C)C)cc1)C3` [Example 10, 6-(2-chlorophenyl)-9-(4-tertbutyl)phenylcarbamoyl-7,8,9,10-tetrahydro-1-methyl 4H-pyrido[4',3':4,5]thieno [3,2-f]1,2,4-triazolo[4,3-a]1,4-diazepine], for which the IC50 in data set [1] is 8.8 nM; at benzodiazepine receptors, 5250 nM. Also, the Percentage of action in data set [2] is reported as -66.2%. The compound further had a Percentage of bronchoconstriction in data set [2] of 26.7%. Also, in “Toxicity on the mice”, the LD50 is 400 to 1000 mg/kg.

`Cc1nnc2n1-c1sc3c(c1C(c1ccccc1Cl)=NC2)CCN(C(=O)Nc1ccc(C(F)(F)F)cc1)C3` [Example 14, 6-(2-chlorophenyl)-9-(4-trifluoromethyl)phenylcarbamoyl-7,8,9,10-tetrahydro-1-methyl 4H-pyrido[4',3':4,5]thieno[3,2-f]1,2,4-triazolo[4,3-a]1,4-diazepine]: the IC50 in data set [1] was determined as 150 nM; on benzodiazepine receptors it was 70500 nM. Besides, the Percentage of action in data set [2] is -38.5%. In data set [2], this compound returned a Percentage of bronchoconstriction of 48.6%.

The compound `COc1ccc(NC(=S)N2CCc3c(sc4c3C(c3ccccc3Cl)=NCc3nnc(C)n3-4)C2)cc1` [Example 7, 6-(2-chlorophenyl)-9-(4-methoxy)phenylthiocarbamoyl-7,8,9,10-tetrahydro-1-methyl4H-pyrido[4',3':4,5]thieno[3,2-f]1,2,4-triazolo[4,3-a]1,4-diazepine] came in with an IC50 in data set [1] of 301 nM. Moreover, the IC50 on benzodiazepine receptors was 2000 nM. For the same compound, in data set [2], the Percentage of action was -83.5% and the Percentage of bronchoconstriction is on record as 13 ± 4.39%.

Compound `CCCCCCCCCCCCCCCCNC(=S)N1CCc2c(sc3c2C(c2ccccc2Cl)=NCc2nnc(C)n2-3)C1` [Example 5, 6-(2-chlorophenyl)-9-hexadecylthiocarbamoyl-7,8,9,10-tetrahydro-1-methyl4H-pyrido[4',3':4,5]thieno [3,2-f]1,2,4-triazolo [4,3-a]1,4-diazepine] registered an IC50 in data set [1] of 297 nM. For the same compound, the IC50 at benzodiazepine receptors worked out at 63000 nM. Besides, in data set [2], the Percentage of action was -61.6% and the Percentage of bronchoconstriction came to 30.3%.

Turning to `COc1cc(NC(=O)N2CCc3c(sc4c3C(c3ccccc3Cl)=NCc3nnc(C)n3-4)C2)cc(OC)c1OC` [Example 8, 6-(2-chlorophenyl)-9-(3,4,5-trimethoxy)phenylcarbamoyl-7,8,9,10-tetrahydro-1-methyl 4H-pyrido[4',3':4,5]thieno [3,2-f]1,2,4-triazolo [4,3-a]1,4-diazepine], the IC50 in data set [1] worked out at 11.5 nM. The IC50 on benzodiazepine receptors worked out at 1500 nM. Also, in data set [2], the Percentage of action is reported as -79.5% and the Percentage of bronchoconstriction amounted to 16.2%.

`Cc1nnc2n1-c1sc3c(c1C(c1ccccc1Cl)=NC2)CCN(C(=O)NC(C)(C)C)C3` [Example 3, 6-(2-chlorophenyl)-9-tertbutylcarbamoyl-7,8,9,10-tetra-hydro-1-methyl4H-pyrido[4',3':4,5]thieno[3,2-f]1,2,4-triazolo [4,3-a]1,4-diazepine]: in data set [1], the IC50 was 17.1 nM. For the same compound, at benzodiazepine receptors, the IC50 stood at 430 nM. Further, in data set [2], the Percentage of action is recorded as -63.7% and the Percentage of bronchoconstriction is reported as 28.7%.

In general, LD50 refers to the dose expected to kill half of the subjects tested. Low readings indicate greater toxicity, high ones lower toxicity.
